Consider one compound from US20190070165A1, “N-HYDROXYISOQUINOLINEDIONE INHIBITORS OF HBV REPLICATION” (Saint Louis University, priority 2016, published 2019).

For one experiment, the system named is HSV-1. Put plainly: HSV-1 replication inhibition assay in Vero cells. The experiment is classed as cell-based, herpes simplex virus 1. The conditions noted are these: Human alphaherpesvirus 1, 24 h; 5 μM, Vero cells; read-out: HSV-1 suppression (log10 at 5 μM), class symbol.
The target in experiment [1] is T1, HBV RNaseH (Hepatitis B virus genotype D subtype ayw, UniProt P03156). To be noted: Table 3, compounds at 100, 60 and 20 μM; compounds 1-91 and 138-140 previously reported (Cai et al., 2014).
Description: RNaseH expression and purification. […] The enriched extracts were dialyzed into 50 mM HEPES pH 7.3, 300 mM NaCl, 20% glycerol, and 5 mM DTT and stored in liquid nitrogen.
Oligonucleotide-directed RNA cleavage assay. […] This mixture was incubated with test compounds in 50 mM Tris pH 8.0, 190 mM NaCl, 5 mM MgCl2, 3.5 mM DTT, 0.05% NP40, 6% glycerol, and 1% DMSO at 42° C. for 90 minutes. Cleavage products were resolved by denaturing polyacrylamide gel electrophoresis, detected by autoradiography, and quantified using ImageJ. Non-specific background values were determined from the incorrect oligonucleotide negative control lane and subtracted from all experimental values. IC50 values were then calculated with GraphPad Prism using three-parameter log(inhibitor) vs. response non-linear curve fitting with the curve minimum set to zero to reflect background subtraction.
The HBV RNaseH inhibition activity of the 16 previously untested compounds was examined using an oligonucleotide-directed cleavage assay. Compounds were incubated with the HBV RNaseH, a ^32P-labeled RNA substrate plus a complementary DNA oligonucleotide and compounds at 100, 60, and 20 μM and the amount of the RNA cleavage products was measured following resolution on an acrylamide gel.
Briefly, a ^32P-labeled RNA was combined with a DNA oligonucleotide and the RNA:DNA substrate was incubated in the presence of the RNaseH and test compounds in 50 mM tris pH 8.0, 190 mM NaCl, 5 mM MgCl2, 3.5 mM DTT, 0.05% NP40, 6% glycerol, and 1% DMSO at 42° C. for 90 minutes. The products were resolved by gel electrophoresis and detected by audioradioagraphy.
Experiment [2] concerns the target T1, HBV RNaseH. Put plainly: Molecular beacon RNaseH assay.
Description: In this assay, a hairpin DNA oligonucleotide labeled with fluorescein on one end and a quencher on the other is held in a linear conformation by annealing to a complementary RNA; cleavage of the RNA causes the DNA to fold into a hairpin, suppressing fluorescence (FIG. 8A).
The substrate is a hairpin DNA oligonucleotide with a 5′ fluorescein reporter and a 3′ black hole quencher annealed to a complementary RNA oligonucleotide. The reaction was initiated by adding 5 mM Mg^++, and fluorescence was monitored at 37° C. with a Synergy 4 96-well plate reader. Inhibition was qualitatively determined as a dose-dependent reduction in the rate of substrate degradation.

Bounds are passed on as bounds.

T1 sequence (P03156 671-832): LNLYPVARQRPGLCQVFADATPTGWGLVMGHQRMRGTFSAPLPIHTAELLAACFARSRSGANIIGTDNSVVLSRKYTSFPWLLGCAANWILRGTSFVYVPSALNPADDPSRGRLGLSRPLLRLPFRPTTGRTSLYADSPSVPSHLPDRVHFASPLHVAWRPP

Take `O=C1c2ccccc2C(=O)N1O` [Compound 138]: the log reduction at 5 µM with HSV-1 was below 1. For the same compound, the “Inhibition of HBV RNaseH, Oligonucleotide directed cleavage assay” value at HBV RNaseH [1] is “− (No inhibition detected at 100 μM)”. For the same compound, on HBV RNaseH [2] (2.1 μg purified HBV RNaseH), the “inhibition in the molecular beacon assay” value is recorded as “had no effect on the rate of substrate degradation”. Further, the “Inhibition of HBV RNaseH, Molecular Beacon cleavage assay” value on HBV RNaseH [2] (Table 3, 0 to 500 μM) was “− (No inhibition detected at 500 μM)”.
